Measurements reported in ChEMBL document CHEMBL5052827, “Ash1l inhibitors and methods of treatment therewith” (2020).
The source made the active and inactive calls. No cut-off for these calls is given here.

Test system: not listed separately
Assay: Cytotoxicity against human CD34-positive cells
Type: toxicity, cell-based, CD34-positive (myeloid/lymphoid) cell
Conditions: not given

Row | Structure (SMILES) | GI50
1 | CC1CN(S(C)(=O)=O)CCC1n1cc(-c2cccc(C(N)=S)c2)c2ccc(N)cc21 (configuration not stated) | > 50 µM

Test system: MV4-11
Assay: Induction of human MV4-11 cell differentiation at 6 to 12 uM measured after 7 days
Type: functional, cell-based
Conditions: dose 6-12 µM, time 7.0 day

Row | Structure (SMILES) | Activity
2 | CC1CN(S(C)(=O)=O)CCC1n1cc(-c2cccc(C(N)=S)c2)c2ccc(N)cc21 (configuration not stated) | Active

Target: Histone-lysine N-methyltransferase ASH1L (Homo sapiens, UniProt Q9NR48)
Assay: Inhibition of ASH1L SET-BAH construct (unknown origin) (2069 to 2833 residues) using SAM as substrate incubated for 1 hr and measured after 45 mins by Beckman scintillation counter method
Conditions: not given

Row | Structure (SMILES) | IC50
3 | CNC(=O)NCc1ccc2c(-c3cccc(C(N)=S)c3)cn(C3CCN(S(=O)(=O)C(F)(F)F)CC3)c2c1 | < 20 µM
4 | CS(=O)(=O)N1CCC(n2cc(-c3cccc(C(N)=S)c3)c3ccc(CNC(=O)Cc4c[nH]cn4)c(Cl)c32)CC1 | < 20 µM
5 | NC(=S)c1cccc(-c2cn(C3CCN(S(=O)(=O)C(F)(F)F)CC3)c3cc(CNC(=O)[C@@H]4C[C@H](F)CN4)ccc23)c1 | < 20 µM
6 | Cc1cc(N2CCC(n3cc(-c4cccc(C(N)=S)c4)c4ccc(CNc5nnc(N)s5)cc43)CC2)n(C)n1 | < 20 µM
7 | CS(=O)(=O)Nc1ccc2c(-c3cccc(C(N)=S)c3)cn(C3CCOCC3)c2c1 | < 20 µM
8 | NC(=S)c1cccc(-c2cn(C3CCC(F)(F)CC3)c3c(Cl)c(N)ccc23)c1 | < 20 µM
9 | CC1CN(S(C)(=O)=O)CCC1n1cc(-c2cccc(C(N)=S)c2)c2ccc(CNc3nnc(N)s3)cc21 (configuration not stated) | < 20 µM
10 | COCCC(=O)Nc1ccc2c(-c3cccc(C(N)=S)c3)cn(CC(CF)CF)c2c1 | < 20 µM
11 | NC(=S)c1cccc(-c2cn(C3CCN(S(=O)(=O)C(F)(F)F)CC3)c3cc(CNC(=O)NCC4CCN4)ccc23)c1 (configuration not stated) | < 20 µM
12 | COc1cccc2[nH]cc(-c3cccc(C(N)=S)c3)c12 | < 20 µM
13 | CCCCCCN1CC(C(=O)NCc2ccc3c(-c4cccc(C(N)=S)c4)cn(C4CCN(S(C)(=O)=O)CC4)c3c2)C1 | < 20 µM
14 | NC(=S)c1cccc(-c2cn(C3CCOCC3)c3cc(CNc4nnc(N)[nH]4)ccc23)c1 | < 20 µM
15 | CC(C)S(=O)(=O)N1CCC(n2cc(-c3cccc(C(N)=S)c3)c3ccc(CNC(=O)C4CCCN4)cc32)CC1 (configuration not stated) | < 20 µM
16 | CS(=O)(=O)N1CCC(n2cc(-c3cccc(C(N)=S)c3)c3ccc(NC(=O)CCOCCOCCOCCOCCOCCOCCOCCOCCNC(=O)CCCC[C@@H]4SC[C@@H]5NC(=O)N[C@@H]54)cc32)CC1 | < 20 µM
17 | CCN1CC(C(=O)NCc2ccc3c(-c4cccc(C(N)=S)c4)cn(C4CCN(c5nccs5)CC4)c3c2)C1 | < 20 µM
18 | COCCC(=O)Nc1ccc2c(-c3cccc(C(N)=S)c3)cn(C3CCC(F)(F)CC3)c2c1 | < 20 µM
19 | NC(=S)c1cccc(-c2cn(C3CCN(c4nccs4)CC3)c3cc(CNC(=O)C4CNC4)ccc23)c1 | < 20 µM
20 | CS(=O)(=O)Nc1ccc2c(-c3cccc(C(N)=S)c3)cn(C3CCC(F)(F)CC3)c2c1 | < 20 µM
21 | CC(C)S(=O)(=O)N1CCC(n2cc(-c3cccc(C(N)=S)n3)c3ccc(CNc4nnc(N)s4)cc32)CC1 | < 20 µM

Row | Structure (SMILES) | IC50
22 | NC(=S)c1cccc(-c2cn(CC(CF)CF)c3cc(NC(=O)CCc4nccs4)ccc23)c1 | < 20 µM
23 | NC(=S)c1cccc(-c2cn(C3CCN(c4nccs4)CC3)c3cc(CNc4nnc(N)s4)ccc23)c1 | < 20 µM
24 | CCC(=O)Nc1ccc2c(-c3cccc(C(N)=S)c3)cn(C3CCN(S(=O)(=O)C(C)C)CC3)c2c1 | < 20 µM
25 | CCCOC1CNC(C(=O)NCc2ccc3c(-c4cccc(C(N)=S)c4)cn(C4CCN(S(=O)(=O)C(C)C)CC4)c3c2)C1 (configuration not stated) | < 20 µM
26 | CN(C)c1cccc2c(S(=O)(=O)NCCCCCCCCC(=O)Nc3ccc4c(-c5cccc(C(N)=S)c5)cn(C5CCC(F)(F)CC5)c4c3)cccc12 | < 20 µM
27 | C[C@@H]1CN[C@H](C(=O)NCc2ccc3c(-c4cccc(C(N)=S)c4)cn(C4CCN(S(=O)(=O)C(F)(F)F)CC4)c3c2)C1 | < 20 µM
28 | CC(C)S(=O)(=O)N1CCC(n2cc(-c3cccc(C(N)=S)c3)c3ccc(N4CCCC4=O)cc32)CC1 | < 20 µM
29 | CC(C)S(=O)(=O)N1CCC(n2cc(-c3cccc(C(N)=S)c3)c3ccc(CNC(=O)C4CNC4)cc32)CC1 | < 20 µM
30 | CS(=O)(=O)N1CCC(n2cc(-c3cccc(C(N)=S)c3)c3ccc(NC(=O)CCCCCNC(=O)c4ccc5c(c4)C(=O)OC54c5ccc(O)cc5Oc5cc(O)ccc54)cc32)CC1 | < 20 µM
31 | NC(=S)c1cccc(-c2cn(C3CCN(S(=O)(=O)C(F)(F)F)CC3)c3cc(NC(=O)CCOCCOCCOCCOCCOCCOCCNC(=O)CCCC[C@@H]4SC[C@@H]5NC(=O)N[C@@H]54)ccc23)c1 | < 20 µM
32 | CCC(=O)Nc1ccc2c(-c3cccc(C(N)=S)c3)cn(CC(CF)CF)c2c1 | < 20 µM
33 | CC(=O)Nc1ccc2c(-c3cccc(C(N)=S)c3)cn(C3CCN(S(=O)(=O)C(F)(F)F)CC3)c2c1 | < 20 µM
34 | NC(=S)c1cccc(-c2cn(C3CCN(S(=O)(=O)CCCNC(=O)CCCC[C@@H]4SC[C@@H]5NC(=O)N[C@@H]54)CC3)c3cc(CNC(=O)c4c[nH]c5ccccc45)ccc23)c1 | < 20 µM
35 | CS(=O)(=O)N1CC2CCC1CC2n1cc(-c2cccc(C(N)=S)c2)c2ccc(N)cc21 (configuration not stated) | < 20 µM
36 | NC(=S)c1cccc(-c2cn(C3CCC(F)(F)CC3)c3cc(NC(=O)CCCCCNC(=O)c4ccc5c(c4)C(=O)OC54c5ccc(O)cc5Oc5cc(O)ccc54)ccc23)c1 | < 20 µM
37 | COc1ccc(Cn2cnc([N+](=O)[O-])c2NCc2ccc3c(-c4cccc(C(N)=S)c4)cn(C4CCOCC4)c3c2)cc1 | < 20 µM
38 | CC1CC(n2cc(-c3cccc(C(N)=S)c3)c3ccc(N)cc32)CCN1S(C)(=O)=O (configuration not stated) | < 20 µM
39 | CC1CN(S(C)(=O)=O)CCC1n1cc(-c2cccc(C(N)=S)c2)c2ccc(CNC(=O)C3CN(C)C3)cc21 (configuration not stated) | < 20 µM
40 | CC(C)S(=O)(=O)N1CCC(n2cc(-c3cccc(C(N)=S)c3)c3ccc(CNC(=O)C4CCN4)cc32)CC1 (configuration not stated) | < 20 µM

Row | Structure (SMILES) | IC50
41 | CC(C)S(=O)(=O)N1CCC(n2cc(-c3cccc(C(N)=S)c3)c3ccc(CNC(=O)C4CN(C)C4)cc32)CC1 | < 20 µM
42 | NC(=S)c1cccc(-c2cn(C3CCN(S(=O)(=O)C(F)(F)F)CC3)c3cc(CNC(=O)[C@@H]4C[C@H](O)CN4)ccc23)c1 | < 20 µM
43 | CCCCCCN1CC(C(=O)NCc2ccc3c(-c4cccc(C(N)=S)c4)cn(C4CCN(S(=O)(=O)C(F)(F)F)CC4)c3c2)C1 | < 20 µM
44 | CS(=O)(=O)N1CCC(n2cc(-c3cccc(C(N)=S)c3)c3ccc(NC(=O)CCCCCNC(=O)CCCC[C@@H]4SC[C@@H]5NC(=O)N[C@@H]54)cc32)CC1 | < 20 µM
45 | NC(=S)c1cccc(-c2cn(C3CCN(S(=O)(=O)C(F)(F)F)CC3)c3cc(CNC(=O)C4CNCCN4)ccc23)c1 (configuration not stated) | < 20 µM
46 | CC(C)S(=O)(=O)N1CCC(n2cc(-c3cccc(C(N)=S)c3)c3ccc(NC(=O)CCCC[C@@H]4SC[C@@H]5NC(=O)N[C@@H]54)cc32)CC1 | < 20 µM
47 | CC1CC(n2cc(-c3cccc(C(N)=S)c3)c3ccc(CNc4nnc(N)s4)cc32)CCO1 (configuration not stated) | < 20 µM
48 | COc1ccc(Cn2cnc(NCc3ccc4c(-c5cccc(C(N)=S)c5)cn(C5CCOCC5)c4c3)c2[N+](=O)[O-])cc1 | < 20 µM
49 | CC(C)S(=O)(=O)N1CCC(n2cc(-c3cccc(C(N)=S)c3)c3ccc(N)cc32)CC1 | < 20 µM
50 | CN1CC(C(=O)NCc2ccc3c(-c4cccc(C(N)=S)c4)cn(C4CCN(S(=O)(=O)C(F)(F)F)CC4)c3c2Cl)C1 | < 20 µM
51 | NC(=S)c1cccc(-c2cn(C3CCN(S(=O)(=O)C(F)(F)F)CC3)c3cc(CNc4nnc(N)s4)ccc23)c1 | < 20 µM
52 | NC(=S)c1cccc(-c2cn(C3CCN(c4nccs4)CC3)c3cc(CNC(=O)c4c[nH]c5ncccc45)ccc23)c1 | < 20 µM
53 | NC(=S)c1cccc(-c2cn(CC(CF)CF)c3cc(NC(=O)Cc4nccs4)ccc23)c1 | < 20 µM
54 | CCCOC1CCNC1C(=O)NCc1ccc2c(-c3cccc(C(N)=S)c3)cn(C3CCN(S(=O)(=O)C(C)C)CC3)c2c1 (configuration not stated) | < 20 µM
55 | NC(=S)c1cccc(-c2cn(C3CCC(F)(F)CC3)c3cc(CNC(=O)C4CNC4)ccc23)c1 | < 20 µM
56 | CS(=O)(=O)N1CCC(n2cc(-c3cccc(C(N)=S)c3)c3ccc(NC(=O)CCOCCOCCOCCOCCNC(=O)CCCC[C@@H]4SC[C@@H]5NC(=O)N[C@@H]54)cc32)CC1 | < 20 µM
57 | COCCN1CC(C(=O)NCc2ccc3c(-c4cccc(C(N)=S)c4)cn(C4CCN(S(C)(=O)=O)CC4)c3c2)C1 | < 20 µM
58 | NC(=S)c1cccc(-c2cn(C3CCOCC3)c3cc(CNc4cc[nH]n4)ccc23)c1 | < 20 µM

Test system: K562
Assay: Antiproliferative activity against human K562 cells measured after 14 days by MTT assay
Type: functional
Conditions: K562, 336 h, time 14 day

Row | Structure (SMILES) | GI50
59 | CC(C)S(=O)(=O)N1CCC(n2cc(-c3cccc(C(N)=S)c3)c3ccc(CNc4nnc(N)s4)cc32)CC1 | > 50 µM
60 | CC1CN(S(C)(=O)=O)CCC1n1cc(-c2cccc(C(N)=S)c2)c2ccc(N)cc21 (configuration not stated) | > 25 µM

Test system: KOPN-8
Assay: Antiproliferative activity against human KOPN-8 cells measured after 14 days by MTT assay
Type: functional
Conditions: KOPN-8, 336 h, time 14 day

Row | Structure (SMILES) | GI50
61 | CC(C)S(=O)(=O)N1CCC(n2cc(-c3cccc(C(N)=S)c3)c3ccc(CNc4nnc(N)s4)cc32)CC1 | 5 µM
62 | CC1CN(S(C)(=O)=O)CCC1n1cc(-c2cccc(C(N)=S)c2)c2ccc(N)cc21 (configuration not stated) | 2.5 µM

Test system: MV4-11
Assay: Antitumor activity in human MV4-11-Luc cells xenografted female NSG mouse assessed as decrease in leukemia progression at 25 mg/kg, ip administered twice a day for 21 days
Type: functional, organism-based
Conditions: time 21.0 day

Row | Structure (SMILES) | Activity
63 | NC(=S)c1cccc(-c2cn(C3CCN(S(=O)(=O)C(F)(F)F)CC3)c3cc(CNC(=O)C4CNC4)ccc23)c1 | Active

Test system: MOLM-13
Assay: Antiproliferative activity against human MOLM-13 cells measured after 14 days by MTT assay
Type: functional
Conditions: MOLM-13, 336 h, time 14 day

Row | Structure (SMILES) | GI50
64 | CC(C)S(=O)(=O)N1CCC(n2cc(-c3cccc(C(N)=S)c3)c3ccc(CNc4nnc(N)s4)cc32)CC1 | 5.5 µM
65 | CC1CN(S(C)(=O)=O)CCC1n1cc(-c2cccc(C(N)=S)c2)c2ccc(N)cc21 (configuration not stated) | 2.7 µM

Test system: SEM cells
Assay: Antiproliferative activity against human SEM cells measured after 14 days by MTT assay
Type: functional
Conditions: 336 h, time 14 day

Row | Structure (SMILES) | GI50
66 | CC(C)S(=O)(=O)N1CCC(n2cc(-c3cccc(C(N)=S)c3)c3ccc(CNc4nnc(N)s4)cc32)CC1 | 2 µM

Test system: MV4-11
Assay: Antiproliferative activity against human MV4-11 cells measured after 14 days by MTT assay
Type: functional
Conditions: MV4-11, 336 h, time 14 day

Row | Structure (SMILES) | GI50
67 | CC(C)S(=O)(=O)N1CCC(n2cc(-c3cccc(C(N)=S)c3)c3ccc(CNc4nnc(N)s4)cc32)CC1 | 2.5 µM
